Results taken from PubChem BioAssay (NCI).
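Test compounds were applied to cells in 96-well plates for 48 hours at 5 doses. Definition used: TGI = concentration required for complete inhibition of growth.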

Legend:
Assay in all cases: growth of human tumour cells (NCI), 48 h
T-47D breast = test system: T-47D breast
SF-295 CNS = test system: SF-295 CNS
K-562 leukemia = test system: K-562 leukemia
SN12C renal = test system: SN12C renal
ACHN renal = test system: ACHN renal
HCT-15 colon = test system: HCT-15 colon
MDA-MB-435 = test system: MDA-MB-435
HCC-2998 colon = test system: HCC-2998 colon
MDA-MB-231 breast = test system: MDA-MB-231 breast
SNB-75 CNS = test system: SNB-75 CNS
NCI-H226 lung = test system: NCI-H226 lung
OVCAR-5 ovarian = test system: OVCAR-5 ovarian

Row | Structure (SMILES) | TGI (T-47D breast) [µM] | TGI (SF-295 CNS) [µM] | TGI (K-562 leukemia) [µM] | TGI (SN12C renal) [µM] | TGI (ACHN renal) [µM] | TGI (HCT-15 colon) [µM] | TGI (MDA-MB-435) [µM] | TGI (HCC-2998 colon) [µM] | TGI (MDA-MB-231 breast) [µM] | TGI (SNB-75 CNS) [µM] | TGI (NCI-H226 lung) [µM] | TGI (OVCAR-5 ovarian) [µM]
1 | CC(=O)OCc1cn(S(=O)(=O)c2ccc(C)cc2)cn1 | > 100 | > 100 | > 100 | > 100 | > 100 | > 100 | > 100 | > 100 | > 100 | > 100 | > 100 | –
2 | Cc1cc(-c2nc3cc(F)c(F)cc3s2)ccc1N | > 100 | > 82.9 | > 100 | > 100 | > 100 | > 100 | > 100 | > 100 | > 100 | > 92.9 | – | > 100
3 | O=C1O[C@H]2[C@@H]3OC(=O)c4cc(O)c(O)c(O)c4-c4c(cc(O)c(O)c4O)C(=O)OC[C@H]2O[C@@H](OC(=O)c2cc(O)c(O)c(O)c2)[C@@H]3OC(=O)c2cc(O)c(O)c3c2[C@@H]2C1=CC(=O)C(O)(O)C2(O)O3 (some centres not stated) | 90.7 | > 100 | 94.5 | 32.3 | > 100 | > 100 | 32.2 | > 100 | 40.2 | 86.4 | > 100 | 67.1
4 | CCCCCCCCCCCCP(=O)(O)OCC(N)C(=O)O (configuration not stated) | > 100 | 41.4 | > 100 | 42.4 | > 100 | 41.3 | 34.6 | > 100 | 65.3 | 40.3 | > 100 | > 100
5 | NC(CCCCNC(=O)C(Cc1ccccc1)NC(=O)OCc1ccccc1)C(=O)NC(CCCCNC(=O)C(Cc1ccccc1)NC(=O)OCc1ccccc1)C(=O)NC(CCCCNC(=O)C(Cc1ccccc1)NC(=O)OCc1ccccc1)C(=O)NC(CCCCNC(=O)C(Cc1ccccc1)NC(=O)OCc1ccccc1)C(=O)NC(CCCCNC(=O)C(Cc1ccccc1)NC(=O)OCc1ccccc1)C(=O)NC(CCCCNC(=O)C(Cc1ccccc1)NC(=O)OCc1ccccc1)C(=O)O (configuration not stated) | > 100 | – | > 100 | > 100 | > 100 | > 100 | > 100 | > 100 | > 100 | > 100 | > 100 | > 100
6 | C/C(=N\Nc1nc2ccccc2o1)c1ccncn1 | 23.2 | > 100 | > 100 | > 100 | > 100 | > 58.1 | > 75.8 | 29 | 97.1 | > 48.2 | > 100 | > 100
7 | CC(C)(C)NC1C2CCC(C)(C1O)C2(C)C (configuration not stated) | > 100 | > 100 | > 100 | – | 21.6 | > 100 | > 100 | > 100 | > 100 | 26.2 | – | > 100
8 | COC(=O)[C@@H]1C[C@]2(CC=C(C)C)c3ccccc3N(S(=O)(=O)c3ccccc3)[C@@H]2N1C(=O)OC | > 100 | > 100 | > 100 | > 100 | > 100 | 55.8 | 45 | 40.1 | > 100 | 38.2 | 89.1 | > 100
9 | COc1cccc(-n2c(N)c(-c3nc4cc(C(F)(F)F)ccc4s3)c3ccc([N+](=O)[O-])cc3c2=O)c1 | > 100 | > 100 | > 100 | > 100 | > 100 | > 100 | > 100 | > 100 | > 100 | > 100 | > 100 | > 100
10 | CN(C(=O)c1cccs1)C(=S)N1CCN(c2ccccc2)CC1 | > 100 | > 100 | > 100 | > 100 | > 100 | > 100 | > 100 | > 100 | > 100 | > 100 | > 100 | > 100
11 | O=C1NN(c2ccccc2)C(=O)C2C3c4ccccc4C(c4ccccc43)C12 (configuration not stated) | > 100 | > 100 | > 100 | > 100 | > 100 | > 100 | > 100 | > 100 | > 100 | > 100 | > 100 | –
12 | N/N=C(\C(=O)Nc1ccc([N+](=O)[O-])cc1)C(C1=Nc2cc([N+](=O)[O-])ccc2NC1)[N+](=O)[O-] (configuration not stated) | > 100 | > 100 | > 100 | > 100 | > 100 | > 100 | > 100 | > 100 | > 100 | > 100 | > 100 | > 100
13 | CCCCP(CCCC)(CCCC)=C(C(=O)OC)C(C(=O)OC)=C1SC(C(=O)OC)=C(C(=O)OC)S1 | 43.7 | 36.3 | – | 29.8 | 54.3 | 96 | 28.1 | – | 35.7 | 45.4 | 45 | 52.5
14 | N#CC(c1cc(Cl)ncn1)c1nc2ccccc2s1 (configuration not stated) | > 100 | 43.7 | > 100 | 7.49 | 68.7 | 15.6 | 62 | – | 60.4 | 28.1 | > 100 | 59.3
15 | CCOP(C)(=O)C(Nc1ccc(F)cc1)c1ccc(F)cc1 (configuration not stated) | > 100 | > 100 | > 100 | > 100 | > 100 | > 100 | > 100 | > 100 | > 100 | – | > 100 | > 100
16 | CC(=O)OC1COC(Nn2c(=O)[nH]c3ccccc3c2=O)C(OC(C)=O)C1OC(C)=O (configuration not stated) | > 100 | > 100 | > 100 | > 100 | > 100 | > 100 | > 100 | – | > 100 | > 100 | > 100 | > 100
17 | CCNc1ncnc2n[nH]nc12 | > 100 | > 100 | > 100 | > 100 | > 100 | > 100 | > 100 | > 100 | > 100 | > 100 | > 100 | –
18 | COC1(C)C=NCC(C)(C)NC(=O)C(C)(OC)C=NCC(C)(C)NC1=O (configuration not stated) | > 10 | > 10 | > 10 | > 10 | > 10 | > 10 | > 10 | > 10 | > 10 | > 10 | – | –
